The values below come from publication PMC7831380 (ACS chemical biology, 2020).

The nature of the series: Overall hydrophobicity from UPLC traces. Format: physicochemical. Particulars: Supporting Information Figure S1.

No end group written: not given here.

As to “TRWGLPV (also: bicyclic or more (positions not given here)) [[W^mut, 16]kB1]”, the “overall hydrophobicity compared to wild-type kB1” value was “increased overall hydrophobicity”.
“TRGFEWLDWEFGLPV (also: bicyclic or more (positions not given here)) [[graft1, 16]kB1]”: the “overall hydrophobicity compared to wild-type kB1” value is recorded as “increased overall hydrophobicity”.
